Data published in patent US6706663B2, “Herbicidal 3-heterocyclic substituted benzisothiazole and benzisoxazole compounds” (Wyeth, priority 2000, dated 2004).

What was measured:
[1] = tested on: IPOHE (Ipomoea hederacea); assay: Postemergence herbicidal evaluation; type: in vivo, (L.) Jacq.; details: postemergence
Procedure, shortened: (§1)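 Visual 0–9 injury scores versus control plants, covering stand, vigour, malformation, size, chlorosis and general appearance, taken four to five weeks post-spray and averaged over replicate tests. Plants were sprayed at roughly two weeks old and held on greenhouse benches.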

[2] = tested on: ECHCG (Echinochloa crus-galli); assay: Postemergence herbicidal evaluation; type: in vivo, (L.) Beau; details: postemergence
Procedure, shortened: as §1

SETVI (Setaria viridis) [3] = assay: Postemergence herbicidal evaluation; type: in vivo, (L.) Beau; details: postemergence
Procedure, shortened: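 Ratings use a 0-9 visual scale covering stand, vigor, malformation, size, chlorosis and appearance versus a control, scored 4-5 weeks post-spray. Roughly two-week-old seedlings received about 0.0040-1.000 kg/ha active, applied in 50/50 acetone/water with 0.5% TWEEN 20. Multiple tests per compound were averaged.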

[4] = tested on: GLXMAW (Soybean, Williams); assay: Postemergence herbicidal evaluation; type: in vivo, Glycine max, (L.) Merr. cv Williams; details: postemergence
Procedure, shortened: as §1

ORYSAT (Rice, Tebonnet) [5] = assay: Postemergence herbicidal evaluation; type: in vivo, Oryza sativa, (L.) Tebonnet; details: postemergence
Procedure, shortened: as §1

[6] = tested on: TRZAWR (Wheat, Winter, cv Riband); assay: Postemergence herbicidal evaluation; type: in vivo, Triticum aestivum; details: postemergence
Procedure, shortened: as §1

ZEAMX (Corn, Field) = assay: Postemergence herbicidal evaluation; type: in vivo, Zea mays, L.; details: postemergence
Procedure, shortened: as §1

[7] = tested on: ABUTH (Abutilon theophrasti); assay: Preemergence herbicidal evaluation; type: in vivo, Medic.; details: rated 4-5 weeks after treatment
[8] = tested on: AMBEL (Ambrosia artemisifolia); assay: Preemergence herbicidal evaluation; type: in vivo, L.; details: rated 4-5 weeks after treatment
Procedure, shortened: (§2)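 Rating 0–9, visual, vs control; 4–5 wk after spraying seeded cups with compound in aq. acetone; conventional greenhouse care.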

[9] = tested on: CASOB (Cassia obtusifolia); assay: Preemergence herbicidal evaluation; type: in vivo, L.; details: rated 4-5 weeks after treatment
Procedure, shortened: as §2

[10] = tested on: CHEAL (Chenopodium album); assay: Preemergence herbicidal evaluation; type: in vivo, L.; details: rated 4-5 weeks after treatment
Procedure, shortened: as §2

[11] = tested on: ECHCG (Echinochloa crus-galli); assay: Preemergence herbicidal evaluation; type: in vivo, (L.) Beau; details: rated 4-5 weeks after treatment
Procedure, shortened: as §2

SETVI (Setaria viridis) [12] = assay: Preemergence herbicidal evaluation; type: in vivo, (L.) Beau; details: rated 4-5 weeks after treatment
Procedure, shortened: as §2

ORYSAT (Rice, Tebonnet) [13] = assay: Preemergence herbicidal evaluation; type: in vivo, Oryza sativa, (L.) Tebonnet; details: rated 4-5 weeks after treatment
[14] = tested on: TRZAWR (Wheat, Winter, cv Riband); assay: Preemergence herbicidal evaluation; type: in vivo, Triticum aestivum; details: rated 4-5 weeks after treatment
Procedure, shortened: as §2

[15] = tested on: ECHORC (Echinochloa oryzoides); assay: Flooded paddy, preemergence weed control; type: in vivo, Echinochloa oryzoides (Ard.) Fritsch.; details: rated 3-4 weeks after treatment, 0-9 rating scale
Procedure, shortened: (§3)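 Ratings of 0-9 reflect visual comparison with a control for stand, vigor, deformity, size, chlorosis and overall look. Propagules were placed in shallow silt loam (top 0.5 cm) under a continuous 1.5–3 cm flood and grown in the greenhouse.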

[16] = tested on: CYPSE (Cyperus serotinus); assay: Flooded paddy, preemergence weed control; type: in vivo, Rottb.; details: rated 3-4 weeks after treatment, 0-9 rating scale
Procedure, shortened: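 Seeds or propagules were planted 0.5 cm deep in silt loam and flooded to 1.5–3 cm. Compounds in 50/50 v/v aqueous/acetone were pipetted into the flood water at about 0.0080 to 0.1250 kg/ha. After 3–4 weeks in the greenhouse, effect was rated visually on a 0–9 scale versus untreated control.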

[17] = tested on: MOOVA (Monochoria vaginalis); assay: Flooded paddy, preemergence weed control; type: in vivo, Presl.; details: rated 3-4 weeks after treatment, 0-9 rating scale
Procedure, shortened: as §3

SMILES: C[C@@H]1C[C@H](C)OC(c2nsc3ccc(-n4c(=O)cc(C(F)(F)F)n(C)c4=O)cc23)O1 (stereo partly drawn) [Compound 50, 3-[3-[(4R,6S)-4,6-dimethyl-m-dioxan-2-yl]-1,2-benzisothiazol-5-yl]-1-methyl-6-(trifluoromethyl)uracil]
- IPOHE herbicidal rating ([1]; rate 0.0320 kg/ha): 9.0
- IPOHE herbicidal rating ([1]; rate 0.0620 kg/ha): 9.0
- ECHCG herbicidal rating ([2]; rate 0.0320 kg/ha): 3.0
- ECHCG herbicidal rating ([2]; rate 0.0620 kg/ha): 3.0
- SETVI herbicidal rating (SETVI (Setaria viridis) [3]; rate 0.0320 kg/ha): 9.0
- SETVI herbicidal rating (SETVI (Setaria viridis) [3]; rate 0.0620 kg/ha): 9.0
- GLXMAW herbicidal rating ([4]; rate 0.0320 kg/ha): 7.5
- GLXMAW herbicidal rating ([4]; rate 0.0620 kg/ha): 7.5
- ORYSAT herbicidal rating (ORYSAT (Rice, Tebonnet) [5]; rate 0.0320 kg/ha): 5.5
- ORYSAT herbicidal rating (ORYSAT (Rice, Tebonnet) [5]; rate 0.0620 kg/ha): 4.5
- TRZAWR herbicidal rating ([6]; rate 0.0320 kg/ha): 4.5
- TRZAWR herbicidal rating ([6]; rate 0.0620 kg/ha): 4.5
- ZEAMX herbicidal rating (ZEAMX (Corn, Field); rate 0.0320 kg/ha): 4.0
- ZEAMX herbicidal rating (ZEAMX (Corn, Field); rate 0.0620 kg/ha): 5.0
- Preemergence herbicidal rating ABUTH ([7]; Rate 0.0620 kg/ha): 9.0
- Preemergence herbicidal rating ABUTH ([7]; Rate 0.1250 kg/ha): 9.0
- Preemergence herbicidal rating ABUTH ([7]; Rate 0.2500 kg/ha): 9.0
- Preemergence herbicidal rating AMBEL ([8]; Rate 0.0620 kg/ha): 9.0
- Preemergence herbicidal rating AMBEL ([8]; Rate 0.1250 kg/ha): 9.0
- Preemergence herbicidal rating AMBEL ([8]; Rate 0.2500 kg/ha): 9.0
- Preemergence herbicidal rating CASOB ([9]; Rate 0.0620 kg/ha): 5.5
- Preemergence herbicidal rating CASOB ([9]; Rate 0.1250 kg/ha): 6.5
- Preemergence herbicidal rating CASOB ([9]; Rate 0.2500 kg/ha): 9.0
- Preemergence herbicidal rating CHEAL ([10]; Rate 0.0620 kg/ha): 9.0
- Preemergence herbicidal rating CHEAL ([10]; Rate 0.1250 kg/ha): 9.0
- Preemergence herbicidal rating CHEAL ([10]; Rate 0.2500 kg/ha): 9.0
- Preemergence herbicidal rating ECHCG ([11]; Rate 0.0620 kg/ha): 9.0
- Preemergence herbicidal rating ECHCG ([11]; Rate 0.1250 kg/ha): 9.0
- Preemergence herbicidal rating ECHCG ([11]; Rate 0.2500 kg/ha): 9.0
- Preemergence herbicidal rating SETVI (SETVI (Setaria viridis) [12]; Rate 0.0620 kg/ha): 9.0
- Preemergence herbicidal rating SETVI (SETVI (Setaria viridis) [12]; Rate 0.1250 kg/ha): 9.0
- Preemergence herbicidal rating SETVI (SETVI (Setaria viridis) [12]; Rate 0.2500 kg/ha): 9.0
- Preemergence herbicidal rating ORYSAT (ORYSAT (Rice, Tebonnet) [13]; Rate 0.0620 kg/ha): 6.5
- Preemergence herbicidal rating ORYSAT (ORYSAT (Rice, Tebonnet) [13]; Rate 0.1250 kg/ha): 8.5
- Preemergence herbicidal rating ORYSAT (ORYSAT (Rice, Tebonnet) [13]; Rate 0.2500 kg/ha): 9.0
- Preemergence herbicidal rating TRZAWR ([14]; Rate 0.0620 kg/ha): 7.0
- Preemergence herbicidal rating TRZAWR ([14]; Rate 0.1250 kg/ha): 8.0
- Preemergence herbicidal rating TRZAWR ([14]; Rate 0.2500 kg/ha): 9.0
- herbicidal rating, ECHORC ([15]; rate 0.0080 kg/ha): 7.0
- herbicidal rating, ECHORC ([15]; rate 0.0320 kg/ha): 7.5
- herbicidal rating, ECHORC ([15]; rate 0.1250 kg/ha): 9.0
- herbicidal rating, CYPSE ([16]; rate 0.0320 kg/ha): 5.0
- herbicidal rating, CYPSE ([16]; rate 0.1250 kg/ha): 7.0
- herbicidal rating, MOOVA ([17]; rate 0.0320 kg/ha): 9.0
- herbicidal rating, MOOVA ([17]; rate 0.1250 kg/ha): 9.0

SMILES: C[C@@H]1C[C@H](C)OC(c2nsc3ccc(-n4c(=O)cc(C(F)(F)F)n(C)c4=O)cc23)O1 (stereo partly drawn) [Compound 51, 3-[3-[(4R,6S)-4,6-dimethyl-m-dioxan-2-yl]-1,2-benzisothiazol-5-yl]-1-methyl-6-(trifluoromethyl)uracil]
- IPOHE herbicidal rating ([1]; rate 0.0320 kg/ha): 9.0
- IPOHE herbicidal rating ([1]; rate 0.0620 kg/ha): 9.0
- ECHCG herbicidal rating ([2]; rate 0.0320 kg/ha): 3.0
- ECHCG herbicidal rating ([2]; rate 0.0620 kg/ha): 3.0
- SETVI herbicidal rating (SETVI (Setaria viridis) [3]; rate 0.0320 kg/ha): 3.0
- SETVI herbicidal rating (SETVI (Setaria viridis) [3]; rate 0.0620 kg/ha): 3.0
- GLXMAW herbicidal rating ([4]; rate 0.0320 kg/ha): 5.0
- GLXMAW herbicidal rating ([4]; rate 0.0620 kg/ha): 7.5
- ORYSAT herbicidal rating (ORYSAT (Rice, Tebonnet) [5]; rate 0.0320 kg/ha): 3.0
- ORYSAT herbicidal rating (ORYSAT (Rice, Tebonnet) [5]; rate 0.0620 kg/ha): 4.0
- TRZAWR herbicidal rating ([6]; rate 0.0320 kg/ha): 3.5
- TRZAWR herbicidal rating ([6]; rate 0.0620 kg/ha): 4.0
- ZEAMX herbicidal rating (ZEAMX (Corn, Field); rate 0.0320 kg/ha): 5.0
- ZEAMX herbicidal rating (ZEAMX (Corn, Field); rate 0.0620 kg/ha): 5.5
- Preemergence herbicidal rating ABUTH ([7]; Rate 0.0620 kg/ha): 9.0
- Preemergence herbicidal rating ABUTH ([7]; Rate 0.1250 kg/ha): 9.0
- Preemergence herbicidal rating ABUTH ([7]; Rate 0.2500 kg/ha): 9.0
- Preemergence herbicidal rating AMBEL ([8]; Rate 0.0620 kg/ha): 9.0
- Preemergence herbicidal rating AMBEL ([8]; Rate 0.1250 kg/ha): 9.0
- Preemergence herbicidal rating AMBEL ([8]; Rate 0.2500 kg/ha): 9.0
- Preemergence herbicidal rating CASOB ([9]; Rate 0.0620 kg/ha): 9.0
- Preemergence herbicidal rating CASOB ([9]; Rate 0.1250 kg/ha): 9.0
- Preemergence herbicidal rating CASOB ([9]; Rate 0.2500 kg/ha): 9.0
- Preemergence herbicidal rating CHEAL ([10]; Rate 0.0620 kg/ha): 9.0
- Preemergence herbicidal rating CHEAL ([10]; Rate 0.1250 kg/ha): 9.0
- Preemergence herbicidal rating CHEAL ([10]; Rate 0.2500 kg/ha): 9.0
- Preemergence herbicidal rating ECHCG ([11]; Rate 0.0620 kg/ha): 9.0
- Preemergence herbicidal rating ECHCG ([11]; Rate 0.1250 kg/ha): 9.0
- Preemergence herbicidal rating ECHCG ([11]; Rate 0.2500 kg/ha): 9.0
- Preemergence herbicidal rating SETVI (SETVI (Setaria viridis) [12]; Rate 0.0620 kg/ha): 9.0
- Preemergence herbicidal rating SETVI (SETVI (Setaria viridis) [12]; Rate 0.1250 kg/ha): 9.0
- Preemergence herbicidal rating SETVI (SETVI (Setaria viridis) [12]; Rate 0.2500 kg/ha): 9.0
- Preemergence herbicidal rating ORYSAT (ORYSAT (Rice, Tebonnet) [13]; Rate 0.0620 kg/ha): 8.5
- Preemergence herbicidal rating ORYSAT (ORYSAT (Rice, Tebonnet) [13]; Rate 0.1250 kg/ha): 9.0
- Preemergence herbicidal rating ORYSAT (ORYSAT (Rice, Tebonnet) [13]; Rate 0.2500 kg/ha): 9.0
- Preemergence herbicidal rating TRZAWR ([14]; Rate 0.0620 kg/ha): 9.0
- Preemergence herbicidal rating TRZAWR ([14]; Rate 0.1250 kg/ha): 9.0
- Preemergence herbicidal rating TRZAWR ([14]; Rate 0.2500 kg/ha): 9.0
- herbicidal rating, ECHORC ([15]; rate 0.0080 kg/ha): 8.0
- herbicidal rating, ECHORC ([15]; rate 0.0320 kg/ha): 9.0
- herbicidal rating, ECHORC ([15]; rate 0.1250 kg/ha): 9.0
- herbicidal rating, CYPSE ([16]; rate 0.0320 kg/ha): 9.0
- herbicidal rating, CYPSE ([16]; rate 0.1250 kg/ha): 9.0
- herbicidal rating, MOOVA ([17]; rate 0.0320 kg/ha): 9.0
- herbicidal rating, MOOVA ([17]; rate 0.1250 kg/ha): 9.0
